Results as given in patent US11814681B2 (priority 2017, dated 2023).
Several values for one entry are separate records, joined by “and”; a condition that tells them apart may be missing. Equal values may be shown once.

Key:
[1] = human, in vivo
schizophrenia patients = details: human, in vivo
[2] = human, in vivo; remark: listed apart in the source
[3] = human, in vivo; remark: listed apart in the source
[4] = tested on: patients (Met allele carriers, Val/Val); parameters: species or system human; details: in vivo
[5] = in vivo; cited from earlier work
[6] = tested on: patients (Met allele carriers, Val/Val); details: in vivo; cited from earlier work

Structure (SMILES) | fasting plasma proline, mean ± SD [1] | difference in SANS total score, Val/Val versus Val/Met and Met/Met (regression coefficient) (schizophrenia patients) | β (95% CI), bivariate association of treatment with total SANS score (schizophrenia patients) | fasting plasma proline versus patients who did not receive the drug [2] | fasting L-serine level [3] | fasting glycine level [3] | patients showing improvement in negative symptoms after treatment onset [4] | effect on circulating proline [5] | blood level considered the lower end of the therapeutic range [6] | effect on circulating proline levels [5]
CCCC(CCC)C(=O)O [VPA, 2-propylpentanoic acid] | 299.29±94.76 | −12.17 | −0.578 (−7.157, 6.001) | significantly higher | 117 µM | 361 µM | 2 out of 9 and 5 out of 7 | upregulates | 50 µg/mL | –
CCO [Ethanol] | – | – | – | – | – | – | – | – | – | increases
